# Test results from US7511065B2, “Mixed lineage kinase modulators” (Eli Lilly and Company, priority 2002, dated 2009).
# Where a name gives a salt, the structure may show the parent alone.
# Molecular target: T1, MLK-7 (Homo sapiens, UniProt Q9NYL2)
# T1 construct: GST; His tag; made in house; host or cells: Sf9 insect cells (baculovirus, pVL1392)
# Experiment: In vitro assay of purified MLK-7 kinase activity (33P transfer from ATP to myelin basic protein)
# Assay type: biochemical
# Details: recombinant GST-tagged MLK-7 at 1 nm, 30 uM ATP, 5 uM MBP substrate, 2 hours room temperature; read-out: MLK7 IC50
# Summary of the method: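 GST/His-tagged MLK-7 from Sf9 (baculovirus), 1 nM, with 5 uM MBP, 30 uM ATP plus 33P, 5 mM MgCl2, 2 mM DTT, 4% DMSO in 44 mM HEPES pH 7.4; 2 h at room temperature, stopped with phosphoric acid. Filter-bound 33P counted; IC50 for reduced phosphate transfer, Ki via Cheng-Prusoff.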
# T1 sequence (Q9NYL2 1-455 isoform Q9NYL2-2): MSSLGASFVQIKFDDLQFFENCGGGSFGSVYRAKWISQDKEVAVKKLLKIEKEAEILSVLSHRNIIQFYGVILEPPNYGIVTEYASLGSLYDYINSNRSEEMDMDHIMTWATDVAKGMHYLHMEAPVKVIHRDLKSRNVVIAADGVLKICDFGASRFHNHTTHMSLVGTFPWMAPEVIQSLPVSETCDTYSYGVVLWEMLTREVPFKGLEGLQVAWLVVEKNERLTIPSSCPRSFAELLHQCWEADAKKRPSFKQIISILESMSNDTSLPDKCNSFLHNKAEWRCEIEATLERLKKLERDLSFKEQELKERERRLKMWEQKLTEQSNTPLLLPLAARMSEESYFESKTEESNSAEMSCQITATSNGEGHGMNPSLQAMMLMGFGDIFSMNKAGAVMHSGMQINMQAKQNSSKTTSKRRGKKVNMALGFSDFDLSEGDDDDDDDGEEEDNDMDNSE
row,Structure (SMILES),IC50 [nM]
1,"CC(C)(C)OC(=O)NCCNC(=O)c1ccc(-c2ccc3c(-c4c(-c5ccccn5)nn5c4CCC5)ccnc3c2)cc1 [Example 121, (2-{4-[4-(2-Pyridin-2-yl-5,6-dihydro-4H-pyrrolo[1,2-b]pyrazol-3-yl)-quinolin-7-yl]-benzoylamino}-ethyl)-carbamic Acid tert-Butyl Ester]",≤ 100
2,"O=C(c1ccc(-c2ccc3c(-c4c(-c5ccccn5)nn5c4CCC5)ccnc3c2)cc1)N1CCCCC1 [Example 122, Piperidin-1-yl-{4-[4-(2-pyridin-2-yl-5,6-dihydro-4H-pyrrolo[1,2-b]pyrazol-3-yl)-quinolin-7-yl]-phenyl}-methanone]",≤ 100
3,"O=C(c1ccc(-c2ccc3c(-c4c(-c5ccccn5)nn5c4CCC5)ccnc3c2)cc1)N1CCSCC1 [Example 123, {4-[4-(2-Pyridin-2-yl-5,6-dihydro-4H-pyrrolo[1,2-b]pyrazol-3-yl)-quinolin-7-yl]-phenyl}-thiomorpholin-4-yl-methanone]",≤ 100
4,"O=C(c1ccc(-c2ccc3c(-c4c(-c5ccccn5)nn5c4CCC5)ccnc3c2)cc1)N1CCOCC1 [Example 124, Morpholin-4-yl-{4-[4-(2-pyridin-2-yl-5,6-dihydro-4H-pyrrolo[1,2-b]pyrazol-3-yl)-quinolin-7-yl]-phenyl}-methanone]",≤ 100
5,"NC(=O)CNC(=O)c1ccc(-c2ccc3c(-c4c(-c5ccccn5)nn5c4CCC5)ccnc3c2)cc1 [Example 125, N-Carbamoylmethyl-4-[4-(2-pyridin-2-yl-5,6-dihydro-4H-pyrrolo[1,2-b]pyrazol-3-yl)-quinolin-7-yl]-benzamide]",≤ 100
6,"CC(C)NCCNC(=O)c1ccc(-c2ccc3c(-c4c(-c5ccccn5)nn5c4CCC5)ccnc3c2)cc1 [Example 126, N-(2-Isopropylamino-ethyl)-4-[4-(2-pyridin-2-yl-5,6-dihydro-4H-pyrrolo[1,2-b]pyrazol-3-yl)-quinolin-7-yl]-benzamide]",≤ 100
7,"CCOC(=O)CCNC(=O)c1ccc(-c2ccc3c(-c4c(-c5ccccn5)nn5c4CCC5)ccnc3c2)cc1 [Example 128, 3-{4-[4-(2-Pyridin-2-yl-5,6-dihydro-4H-pyrrolo[1,2-b]pyrazol-3-yl)-quinolin-7-yl]-benzoylamino}-propionic Acid Ethyl Ester]",≤ 100
8,"CC(C)(C)OC(=O)N1CCCC(NC(=O)c2ccc(-c3ccc4c(-c5c(-c6ccccn6)nn6c5CCC6)ccnc4c3)cc2)C1 (centres unmarked) [Example 130, 3-{4-[4-(2-Pyridin-2-yl-5,6-dihydro-4H-pyrrolo[1,2-b]pyrazol-3-yl)-quinolin-7-yl]-benzoylamino}-piperidine-1-carboxylic Acid tert-Butyl Ester]",≤ 100
9,"CC(C)(C)OC(=O)NCCCC[C@H](NC(=O)c1ccc(-c2ccc3c(-c4c(-c5ccccn5)nn5c4CCC5)ccnc3c2)cc1)C(=O)OC(C)(C)C [Example 131, 6-tert-Butoxycarbonylamino-2(S)-{4-[4-(2-pyridin-2-yl-5,6-dihydro-4H-pyrrolo[1,2-b]pyrazol-3-yl)-quinolin-7-yl]-benzoylamino}-hexanoic acid tert-butyl ester]",≤ 1000
10,"O=C(NCCN1CCOCC1)c1ccc(-c2ccc3c(-c4c(-c5ccccn5)nn5c4CCC5)ccnc3c2)cc1 [Example 132, N-(2-Morpholin-4-yl-ethyl)-4-[4-(2-pyridin-2-yl-5,6-dihydro-4H-pyrrolo[1,2-b]pyrazol-3-yl)-quinolin-7-yl]-benzamide]",≤ 100
11,"O=C(c1ccc(-c2ccc3c(-c4c(-c5ccccn5)nn5c4CCC5)ccnc3c2)cc1)N1CCS(=O)(=O)CC1 [Example 133, (1,1-Dioxo-1λ^6-thiomorpholin-4-yl)-{4-[4-(2-pyridin-2-yl-5,6-dihydro-4H-pyrrolo[1,2-b]pyrazol-3-yl)-quinolin-7-yl]-phenyl}-methanone]",≤ 100
12,"CSC[C@@H](NC(=O)c1ccc(-c2ccc3c(-c4c(-c5ccccn5)nn5c4CCC5)ccnc3c2)cc1)C(=O)OC(C)(C)C [Example 134, 3-Methylsulfanyl-2(S)-{4-[4-(2-pyridin-2-yl-5,6-dihydro-4H-pyrrolo[1,2-b]pyrazol-3-yl)-quinolin-7-yl]-benzoylamino}-propionic Acid tert-Butyl Ester]",≤ 1000
13,"CC(C)(C)OC(=O)CC[C@H](NC(=O)c1ccc(-c2ccc3c(-c4c(-c5ccccn5)nn5c4CCC5)ccnc3c2)cc1)C(=O)OC(C)(C)C [Example 135, 2(S)-{4-[4-(2-Pyridin-2-yl-5,6-dihydro-4H-pyrrolo[1,2-b]pyrazol-3-yl)-quinolin-7-yl]-benzoylamino}-pentanedioic Acid Di-tert-Butyl Ester]",≤ 1000
14,"CN(C)C(=O)c1ccc(-c2ccc3c(-c4c(-c5ccccn5)nn5c4CCC5)ccnc3c2)cc1 [Example 136, N,N-Dimethyl-4-[4-(2-pyridin-2-yl-5,6-dihydro-4H-pyrrolo[1,2-b]pyrazol-3-yl)-quinolin-7-yl]-benzamide]",≤ 100
15,"CC(C)(C)OC(=O)CCNC(=O)c1ccc(-c2ccc3c(-c4c(-c5ccccn5)nn5c4CCC5)ccnc3c2)cc1 [Example 137, 3-{4-[4-(2-Pyridin-2-yl-5,6-dihydro-4H-pyrrolo[1,2-b]pyrazol-3-yl)-quinolin-7-yl]-benzoylamino}-propionic Acid tert-Butyl Ester]",≤ 100
16,"CNC(=O)c1ccc(-c2ccc3c(-c4c(-c5ccccn5)nn5c4CCC5)ccnc3c2)cc1 [Example 138, N-Methyl-4-[4-(2-pyridin-2-yl-5,6-dihydro-4H-pyrrolo[1,2-b]pyrazol-3-yl)-quinolin-7-yl]-benzamide]",≤ 100
17,"CS(=O)(=O)CCNC(=O)c1ccc(-c2ccc3c(-c4c(-c5ccccn5)nn5c4CCC5)ccnc3c2)cc1 [Example 139, N-(2-Methanesulfonyl-ethyl)-4-[4-(2-pyridin-2-yl-5,6-dihydro-4H-pyrrolo[1,2-b]pyrazol-3-yl)-quinolin-7-yl]-benzamide]",≤ 100
18,"CN(C)/C=N/C(=O)c1ccc(-c2ccc3c(-c4c(-c5ccccn5)nn5c4CCC5)ccnc3c2)cc1 [Example 140, N-Dimethylaminomethylene-4-[4-(2-pyridin-2-yl-5,6-dihydro-4H-pyrrolo[1,2-b]pyrazol-3-yl)-quinolin-7-yl]-benzamide]",≤ 100
19,"NC(=O)c1ccc(-c2ccc3c(-c4c(-c5ccccn5)nn5c4CCC5)ccnc3c2)cc1 [Example 141, 4-[4-(2-Pyridin-2-yl-5,6-dihydro-4H-pyrrolo[1,2-b]pyrazol-3-yl)-quinolin-7-yl]-benzamide]",≤ 100
20,"NCCCC[C@H](NC(=O)c1ccc(-c2ccc3c(-c4c(-c5ccccn5)nn5c4CCC5)ccnc3c2)cc1)C(=O)O [Example 143, 6-Amino-2(S)-{4-[4-(2-pyridin-2-yl-5,6-dihydro-4H-pyrrolo[1,2-b]pyrazol-3-yl)-quinolin-7-yl]-benzoylamino}-hexanoic acid, Ditrifluoroacetic Acid Salt]",≤ 100
21,"CSC[C@@H](NC(=O)c1ccc(-c2ccc3c(-c4c(-c5ccccn5)nn5c4CCC5)ccnc3c2)cc1)C(=O)O [Example 145, 3-Methylsulfanyl-2(S)-{4-[4-(2-pyridin-2-yl-5,6-dihydro-4H-pyrrolo[1,2-b]pyrazol-3-yl)-quinolin-7-yl]-benzoylamino}-propionic Acid Trifluoroacetic Acid Salt]",≤ 100
22,"O=C(O)CC[C@H](NC(=O)c1ccc(-c2ccc3c(-c4c(-c5ccccn5)nn5c4CCC5)ccnc3c2)cc1)C(=O)O [Example 146, 2(S)-{4-[4-(2-Pyridin-2-yl-5,6-dihydro-4H-pyrrolo[1,2-b]pyrazol-3-yl)-quinolin-7-yl]-benzoylamino}-pentanedioic Acid Trifluoroacetic Acid Salt]",≤ 100
23,"O=C(O)CCNC(=O)c1ccc(-c2ccc3c(-c4c(-c5ccccn5)nn5c4CCC5)ccnc3c2)cc1 [Example 147, 3-{4-[4-(2-Pyridin-2-yl-5,6-dihydro-4H-pyrrolo[1,2-b]pyrazol-3-yl)-quinolin-7-yl]-benzoylamino}-propionic Acid Trifluoroacetic Acid Salt]",≤ 100
